# Read-outs that look alike come from different tables or passages of the source.
# Tests used:
# [1] = Serum insulin after pulmonary instillation of insulin with carrier compound (Example 4); type: in vivo, rat; conditions: rats, spray instillation into airway; insulin 0.03 mg/kg with carrier compound 16 mg/kg
# Protocol: Carrier compound B, carrier compound C sodium salt, and carrier compound D in Table 10 were tested as follows.
# An endotracheal tube (spray instillator from Penn Century of Philadelphia, Pa.) with a syringe (Hamilton syringe) attached to the endotracheal tube was inserted using a fiber optic laryngoscope.
# Solubility of carriers = type: physicochemical; conditions: water, thermodynamic from solid; clear solution, pH 6.85
# plasma glucose = test: Plasma glucose pharmacodynamics after lung spray-IT instillation to rats; type: in vivo, Sprague Dawley female rats
# Protocol: Determination of fasting plasma glucose levels was performed using the Ektachem DT Slide (GLU) method. The analysis is based on the enzyme-catalyzed reaction of glucose with molecular oxygen, followed by a second reaction that produces a highly-colored red dye. The intensity of the color is proportional to the amount of glucose in the sample.
# The percentage minimum plasma glucose concentration (%MPGC) and the time T to attain each %MPGC (T%MPGC) were determined from the average plasma glucose levels versus-time profiles for the treatments.
# The area above the curve effect (AACE) was calculated as follows:
# AACE=Total area−AUCE (Eq.2)
# where AUCE represents the area under the curve effect calculated using the trapezoidal rule.
# The percentage total reduction in plasma glucose from 0→t (%TRPG 0→t) was determined using the following equation:
# %TRPG0→t=100(AACE/total area) (Eq.3)
# [2] = rat, in vivo
# Protocol: Each rat was weighed and identified using an indelible marker and anesthetized by intraperitoneal injection of ketamine: Xylazine: Acepromazine cocktail, at 80 mg/kg, 10 mg/kg and 2.0 mg/kg, respectively and returned to its cage. The rat was transferred to the surgical bench and placed on a heating blanket thermostatically controlled via rectal probe, once deep anesthesia was achieved.
# The right jugular vein of each rat was catheterized using silicone tubing and the patency of the catheter was confirmed by slowly flushing the cannula with 200 μl heparin saline and then withdrawing 100 μl of blood. The cannula was then cleared with 200 μl of heparinized saline solution.
# An endotrachcal tube was inserted using a fiber optic laryngoscope. The syringe (Hamilton syringe) of the instillator was attached to the endotracheal tube and used to instill solution (100 μl) in the airways. The endotracheal tube was removed following administration, and the breathing rate was monitored throughout the remainder of the study.
# Blood samples (500 μl) were withdrawn at 0, 10, 30, 60, 90, 120 and 180 min and the cannula flushed with approximately 200 μl of heparinized saline solution. The blood was collected in 1 ml tuberculin syringes (containing 100 μl heparin 20 μ/ml) placed directly into microcentrifuge tubes.
# Blood samples were immediately centrifuged at 10 000 rpm for 4 min.
# Average insulin plasma concentrations over time were subjected to standard compartmental and non-compartmental pharmacokinetic analysis.
# Average concentrations of insulin were fitted to the following equation:
# CPins=A(e^−ke 1+e^−ka 1) (Eq.1)
# where A=D ka/Vd (ka−ke) is the concentration of drug in the body at time zero, ka is the first order absorption rate constant, ke is the first order elimination rate constant.
# The area under the lung concentration-time curve (AUC0−1) was calculated by the trapezoidal rule. Interpolation to infinity was performed by dividing the last Cins measured by the first-order rate constant of the terminal phase. The total area under the curve was estimated by the summation of these two compounds.
# The elimination half-life was calculated from 0.693/ke where ke is the slope of the terminal phase of the log of the concentration-time profile.
# The non-compartment analysis for insulin plasma concentrations over time was performed using standard techniques. The time to peak CPins (Tmax) and peak CPins (Cmax) were determined from the non-fitted average plasma concentrations (CPins) versus-time profiles for the treatments. AUC was calculated by the trapezoidal rule. MRT was not calculated due to a lack of data following intravenous administration from which to calculate pharmacokinetic parameters.
# [3] = lung spray-IT, insulin 0.01 mg/kg alone
# [4] = lung spray-IT, insulin 0.05 mg/kg alone
# [5] = spray-IT, porcine insulin 0.01 mg/kg, Table 3
# [6] = spray-IT, porcine insulin 0.05 mg/kg, Table 3
# [7] = spray-IT, porcine insulin 0.1 mg/kg, Table 3
# [8] = spray-IT, porcine insulin 0.5 mg/kg, Table 3
# [9] = spray-IT, porcine insulin 1.0 mg/kg, Table 3
molecule,measurement,setting,value
"CC(C(=O)O)c1ccc(NC(=O)c2ccccc2O)cc1 (stereo not drawn) [Carrier B, 2-(4-(N-salicyloyl)aminophenyl) propionic acid]",Cmax (serum insulin),[1],44.6 ± 10.0 μU/ml
COc1cccc(C(=O)Nc2ccc(CCC(=O)[O-])cc2)c1OC.[Na+] [Carrier C sodium salt],Cmax (serum insulin),[1],22.5 ± 4.0 μU/ml
"Cc1ccc(C(=O)NCCCCCCCC(=O)O)c(O)c1 [Carrier D, N-(4-methylsalicyloyl)-8-aminocaprylic acid]",Cmax (serum insulin),[1],58.8 ± 12.0 μU/ml
same,melting point,,113 to 114 °C
"CC(C(=O)[O-])c1ccc(NC(=O)c2ccccc2O)cc1.[Na+] (stereo not drawn) [Sodium Salt of Carrier B, Sodium 2-(4-(N-salicyloyl)aminophenyl)propionate]",solubility,Solubility of carriers,200 mg/mL
Porcine Insulin: Lyophilized porcine insulin 25.9 IU/mg (Emisphere Technologies),% MPGC,plasma glucose; [3],70.02%
same,% TRPG0-3 hr,plasma glucose; [3],10.5±1.5%
same,AACE0-t,plasma glucose; [3],1892 ± 989 mcU/min/ml
same,T % MPGC,plasma glucose; [3],180 min
same,% TRPG0-3 hr,"plasma glucose; lung spray-IT, insulin 0.01 mg/kg alone, listed as Insulin alone",10.5 ± 1.5%
same,% MPGC,plasma glucose; [4],35.7%
same,% TRPG0-3 hr,plasma glucose; [4],47±10%
same,AACE0-t,plasma glucose; [4],8497 ± 1716 mcU/min/ml
same,T % MPGC,plasma glucose; [4],120 min
same,% TRPG0-3 hr,"plasma glucose; lung spray-IT, insulin 0.05 mg/kg alone, listed as Insulin alone",47 ± 10%
same,% MPGC,plasma glucose; [5],70.2%
same,% TRPG0→3 hr,plasma glucose; [5],10.5 ± 1.5%
same,AACE0→t,plasma glucose; [5],1892 ± 989 μU · min/ml
same,T % MPGC,plasma glucose; [5],180
same,% TRPG0→3 hr,"plasma glucose; spray-IT, porcine insulin 0.01 mg/kg, Table 3, listed as insulin",10.5%
same,% MPGC,plasma glucose; [6],35.69%
same,% TRPG0→3 hr,plasma glucose; [6],47.2 ± 9.5%
same,AACE0→t,plasma glucose; [6],8497 ± 1716 μU · min/ml
same,T % MPGC,plasma glucose; [6],120
same,% MPGC,plasma glucose; [7],35.3%
same,% TRPG0→3 hr,plasma glucose; [7],50.5 ± 12.7%
same,AACE0→t,plasma glucose; [7],9102 ± 2295 μU · min/ml
same,T % MPGC,plasma glucose; [7],120
same,% MPGC,plasma glucose; [8],30.6%
same,% TRPG0→3 hr,plasma glucose; [8],54.5 ± 6.5%
same,AACE0→t,plasma glucose; [8],10205 ± 1173 μU · min/ml
same,T % MPGC,plasma glucose; [8],60
same,% MPGC,plasma glucose; [9],13.1%
same,% TRPG0→3 hr,plasma glucose; [9],73.7 ± 3.1%
same,AACE0→t,plasma glucose; [9],13266 ± 570 μU · min/ml
same,T % MPGC,plasma glucose; [9],120
same,% TRPG0→3 hr,"plasma glucose; spray-IT, porcine insulin 1.0 mg/kg, Table 3, listed as insulin",73.7%
same,half-life of decline in plasma concentrations,[2],27.8 to 142.4 min
same,t½ (abs),[2]; 0.001 mg/kg,27.8 min
same,t½ (elim),[2]; 0.001 mg/kg,3.0 min
same,t½ (abs),[2]; 0.005 mg/kg,42.6 min
same,t½ (elim),[2]; 0.005 mg/kg,3.0 min
same,tmax,[2]; 0.01 mg/kg,10 min
same,tmax,[2]; 0.05 mg/kg,10 min
same,AUC,[2]; 0.1 mg/kg,9517.5
same,tmax,[2]; 0.1 mg/kg,10 min
same,AUC,[2]; 0.5 mg/kg,60345
same,tmax,[2]; 0.5 mg/kg,30 min
same,AUC,[2]; 1 mg/kg,178143.5
same,tmax,[2]; 1 mg/kg,30 min
same,relative bioavailability,[2]; sc,12.46%
